This assay has as its system HMVEC. Put plainly: human microvascular endothelial (HMVEC) migration assay. The following applies: Homo sapiens; Inhibition of HMVEC migration; 0.1 nM; activators 15 ng/mL bFGF/VEGF; 4 hours at 37 °C; compared to a positive control. It is filed as cell-based. On the procedure: The human microvascular endothelial (HMVEC) migration assay was run according to the procedure of S. S. Tolsma, O. V. Volpert, D. J. Good, W. F. Frazier, P. J. Polverini and N. Bouck, J. Cell Biol. 122, 497-511 (1993).
The HMVEC migration assay was carried out using Human Microvascular Endothelial Cells-Dermal (single donor) and Human Microvascular Endothelial Cells, (neonatal). The BCE or HMVEC cells were starved overnight in DME containing 0.01% bovine serum albumin (BSA). Cells were then harvested with trypsin and resuspended in DME with 0.01 % BSA at a concentration of 1.5 X 10^6 cells per mL. Cells were added to the bottom of a 48 well modified Boyden chamber (Nucleopore Corporation, Cabin John, MD). The chamber was assembled and inverted, and cells were allowed to attach for 2 hours at 37 °C to polycarbonate chemotaxis membranes (5 µm pore size) that had been soaked in 0.01 % gelatin overnight and dried. The chamber was then reinverted, and test substances (total volume of 50 µL), including activators, 15 ng/mL bFGF/VEGF, were added to the wells of the upper chamber. The apparatus was incubated for 4 hours at 37 °C. Membranes were recovered, fixed and stained (Diff Quick, Fisher Scientific) and the number of cells that had migrated to the upper chamber per 3 high power fields counted. Background migration to DME + […] was subtracted and the data reported as the number of cells migrated per 10 high power fields (400X) or, when results from multiple experiments were combined, as the percent inhibition of migration compared to a positive control.

In the case of `C#CCNC(=O)N[C@@H]1CCN(C(=O)c2ccc(C)nc2)C1` [Example 16, N-{(3R)-1-[(6-methyl-3-pyridinyl)carbonyl]-3-pyrrolidinyl}-N'-2-propynylurea], testing at 0.0001 µM gave an inhibition of 72%.

In turn, `Cc1ccc(C(=O)N2CC[C@@H](NC(=O)NCC3CC3)C2)cn1` [Example 17, N-(cyclopropylmethyl)-N'-{(3R)-1-[(6-methyl-3-pyridinyl)carbonyl]-3-pyrrolidinyl}urea] gave an inhibition at 0.0001 µM of 76%.

`Cc1ccc(C(=O)N2CC[C@@H](NC(=O)NC3CCC3)C2)cn1` [Example 18, N-cyclobutyl-N'-{(3R)-1-[(6-methyl-3-pyridinyl)carbonyl]-3-pyrrolidinyl}urea] gave an inhibition at 0.0001 µM of 61%.

For `Cc1ccc(C(=O)N2CC[C@@H](NC(=O)NC3CCCCC3)C2)cn1` [Example 19, N-cyclohexyl-N'-{(3R)-1-[(6-methyl-3-pyridinyl)carbonyl]-3-pyrrolidinyl}urea], the inhibition at 0.0001 µM worked out at 63%.

`Cc1ccc(C(=O)N2CC[C@@H](NC(=O)NC3CCC(C)CC3)C2)cn1` (stereo partly drawn) [Example 20, N-(4-methylcyclohexyl)-N'-{(3R)-1-[(6-methyl-3-pyridinyl)carbonyl]-3-pyrrolidinyl}urea] showed an inhibition at 0.0001 µM of 67%.

Take `Cc1ccc(C(=O)N2CC[C@@H](NC(=O)NCC3CCCCC3)C2)cn1` [Example 21, N-(cyclohexylmethyl)-N'-{(3R)-1-[(6-methyl-3-pyridinyl)carbonyl]-3-pyrrolidinyl}urea]: 0.0001 µM produced 90% inhibition.

In turn, `Cc1ccc(C(=O)N2CC[C@@H](NC(=O)NC3CCCCCC3)C2)cn1` [Example 22, N-cycloheptyl-N'-{(3R)-1-[(6-methyl-3-pyridinyl)carbonyl]-3-pyrrolidinyl}urea] returned an inhibition at 0.0001 µM of 70%.

On to `Cc1ccc(C(=O)N2CC[C@@H](NC(=O)N[C@H](CO)CC(C)C)C2)cn1` [Example 23, N-[(1S)-1-(hydroxymethyl)-3-methylbutyl]-N'-{(3R)-1-[(6-methyl-3-pyridinyl)carbonyl]-3-pyrrolidinyl}urea], for which the inhibition at 0.0001 µM was found to be 93%.

`Cc1ccc(C(=O)N2CC[C@@H](NC(=O)N[C@@H](CO)CC(C)C)C2)cn1` [Example 24, N-[(1R)-1-(hydroxymethyl)-3-methylbutyl]-N'-{(3R)-1-[(6-methyl-3-pyridinyl)carbonyl]-3-pyrrolidinyl}urea] returned an inhibition at 0.0001 µM of 70%.

As to `Cc1ccc(C(=O)N2CC[C@@H](NC(=O)N[C@H](CO)c3ccccc3)C2)cn1` [Example 25, N-[(1S)-2-hydroxy-1-phenylethyl]-N'-{(3R)-1-[(6-methyl-3-pyridinyl)carbonyl]-3-pyrrolidinyl}urea], 0.0001 µM produced 80% inhibition.

For `Cc1ccc(C(=O)N2CC[C@@H](NC(=O)NCCCOC(C)C)C2)cn1` [Example 26, N-(3-isopropoxypropyl)-N'-{(3R)-1-[(6-methyl-3-pyridinyl)carbonyl]-3-pyrrolidinyl}urea], the inhibition at 0.0001 µM was 75%.

In turn, `Cc1ccc(C(=O)N2CC[C@@H](NC(=O)NCC(O)CO)C2)cn1` (stereo partly drawn) [Example 27, N-(2,3-dihydroxypropyl)-N'-{(3R)-1-[(6-methyl-3-pyridinyl)carbonyl]-3-pyrrolidinyl}urea] showed an inhibition at 0.0001 µM of 83%.

Compound `COc1ccc2[nH]cc(CCNC(=O)N[C@@H]3CCN(C(=O)c4ccc(C)nc4)C3)c2c1` [Example 29, N-[2-(5-methoxy-1H-indol-3-yl)ethyl]-N'-{(3R)-1-[(6-methyl-3-pyridinyl)carbonyl]-3-pyrrolidinyl}urea] came in with an inhibition at 0.0001 µM of 92%.

Compound `Cc1ccc(C(=O)N2CC[C@@H](NC(=O)NCc3ccc(F)cc3F)C2)cn1` [Example 30, N-(2,4-difluorobenzyl)-N'-{(3R)-1-[(6-methyl-3-pyridinyl)carbonyl]-3-pyrrolidinyl}urea] gave an inhibition at 0.0001 µM of 64%.

In turn, `Cc1ccc(C(=O)N2CC[C@@H](NC(=O)NCCC(c3ccccc3)c3ccccc3)C2)cn1` [Example 31, N-(3,3-diphenylpropyl)-N'-{(3R)-1-[(6-methyl-3-pyridinyl)carbonyl]-3-pyrrolidinyl}urea] displayed an inhibition at 0.0001 µM of 79%.

The inhibition is the percentage by which the read-out fell short of the control.

Values taken from patent EP1680415B1, “PYRROLIDINYL UREA DERIVATIVES AS ANGIOGENESIS INHIBITORS” (ABBOTT LABORATORIES, priority 2003, dated 2005).
